Here are results for 6 compounds from patent US20140303166A1, “COSMETIC METHOD FOR CHANGING THE APPEARANCE OF EYES” (priority 2013, published 2014).

Structures can show the parent of a compound that is named as a salt.

In this assay the test system is eyelids. Nature of the assay: topical application to the eyelids (eyelid retraction / eye-widening). To be noted: topically applied, alone or in combination. The assay is classed as in vivo. The source says: Topical treatments to which the current application is directed include ointments, creams, and solutions that contain one or more of the compounds travoprost, dorzolamide hydrochloride, and timolol maleate, alone or in combination, and/or one or more chemically-related compounds and may also include pure forms of various types of prostaglandin, synthetic prostaglandin, and synthetic prostaglandin analogues.
In the case of `CCCCCCCC(=O)CC[C@@H]1[C@@H](C/C=C\CCCC(=O)OC(C)C)[C@@H](O)C[C@H]1O` [unoprostone, isopropyl (Z)-7-[(1R,2R,3R,5 S)-3,5-dihydroxy-2-(3-oxodecyl)cyclopentyl] hept-5-enoic acid], the “eyelid retraction after topical application to the eyelids” value is reported as “cause the eyelids to retract more completely”. For `CCNC(=O)CCCC=CCC1C(O)CC(O)C1C=CC(O)CCc1ccccc1` (stereo not drawn) [bimatoprost, 7-[3,5-dihydroxy-2-(3-hydroxy-5-phenyl-pent-1-enyl)-cyclopentyl]-N-ethyl-hept-5-enamide] the value was “cause the eyelids to retract more completely”; for `CC(C)OC(=O)CCCC=CCC1C(O)CC(O)C1C=CC(O)COc1cccc(C(F)(F)F)c1` (stereo not drawn) [travoprost, propan-2-yl 7-[3,5-dihydroxy-2-[3-hydroxy-4-[3-(trifluoromethyl)phenoxy]-but-1-enyl]-cyclopentyl]hept-5-enoate], “cause the eyelids to retract more completely”. In the case of `CCN[C@H]1C[C@H](C)S(=O)(=O)c2sc(S(N)(=O)=O)cc21` [dorzolamide hydrochloride, (4S,6S)-2-ethylamino-4-methyl-5,5-dioxo-5λ^6,7dithiabicyclo[4.3.0] nona-8,10-diene-8-sulfonamide] it was “cause the eyelids to retract more completely”. In the case of `CC(C)OC(=O)CCC/C=C\C[C@@H]1[C@@H](CC[C@@H](O)CCc2ccccc2)[C@H](O)C[C@@H]1O` [latanoprost, isopropyl (Z)-7-[(1R,2R,3R,5S)-3,5-dihydroxy-2-[(3R)3-hydroxy-5-phenylpentyl]-cyclopentyl] hept-5-enoate] it was “cause the eyelids to retract more completely”; in that of `CC(C)(C)NC[C@H](O)COc1nsnc1N1CCOCC1` [timolol maleate, (S)-1-(tert-butylamino)-3-[(4-morpholin-4-yl-1,2,5-thiadiazol-3-yl)oxy]propan-2-ol], “cause the eyelids to retract more completely”.
